Read-outs that look alike come from different tables or passages of the source.
What was measured:
SARS-CoV-2 3CL protease = SARS-CoV-2 3CL protease (Severe acute respiratory syndrome coronavirus 2, UniProt P0DTD1); test: biochemical; conditions: 50% SARS-CoV-2 3CL protease inhibitory concentration, read-out: IC50
SARS-CoV-2 = test: microbe, parasite or virus in culture; assay type: cell-based; conditions: Severe acute respiratory syndrome coronavirus 2, VeroE6/TMPRSS2, 72 h, 50% SARS-CoV-2 infected cell death inhibitory concentration, VeroE6/TMPRSS2 cells, 3 days culture

Compound	IC50 (SARS-CoV-2 3CL protease; given as class symbols)	IC50 (SARS-CoV-2 3CL protease; RapidFire MS)	EC50 (SARS-CoV-2; CellTiter-Glo 2.0)	EC50 (SARS-CoV-2; class symbols)
Cn1cnc(Cn2c(=O)nc(Nc3cc4cn(CC(F)F)nc4cc3Cl)n(Cc3cc(F)c(F)c(F)c3)c2=O)n1 [Compound I-0433]	< 100 nM	10 nM	720 nM	< 1000 nM
Cc1cncc(-n2c(=O)nc(Nc3cc4cn(C)nc4cc3Cl)n(Cc3cc(F)c(F)c(Cl)c3)c2=O)c1 [II-0119]	–	8.9 nM	183 nM	–
Cn1cnc(Cn2c(=O)nc(Nc3cc4cn(C)nc4cc3Cl)n(Cc3cc(Cl)ccc3Cl)c2=O)n1 [II-0591]	< 100 nM	–	–	< 1000 nM
Cc1cncc(-n2c(=O)nc(Nc3cc4cn(C)nc4cc3C)n(Cc3cc(F)c(F)c(F)c3)c2=O)c1 [Compound I-0114]	< 100 nM	–	–	1000 to 10000 nM
COc1ccc(Nc2nc(=O)n(-c3cncc4ccccc34)c(=O)n2Cc2ccc(F)c(C#N)c2)c(F)c1 [II-0178]	< 100 nM	–	–	< 1000 nM
COc1ccc(Nc2nc(=O)n(Cc3cc4cccnc4[nH]c3=O)c(=O)n2Cc2cc(F)c(F)c(F)c2)cc1 [Compound I-0084]	< 100 nM	–	–	1000 to 10000 nM
CCn1cc2cc(Nc3nc(=O)n(-c4cncc(Cl)c4)c(=O)n3Cc3ccc(F)c(C#N)c3)ccc2n1 [II-0566]	–	27 nM	898 nM	–
CCNc1nc2cc(Cl)c(Nc3nc(=O)n(-c4cncc(C)c4)c(=O)n3Cc3ccc(F)c(C#N)c3)cc2s1 [II-0336]	< 100 nM	–	–	< 1000 nM
Cn1ccc(-c2ccnc(Cn3c(=O)nc(Nc4cc5cn(C)nc5cc4Cl)n(Cc4cc(F)c(F)cc4F)c3=O)c2)n1 [II-0247]	< 100 nM	–	–	< 1000 nM
CN(C)C(=O)c1ccc(Cn2c(=O)nc(Nc3cc4c(cc3Cl)OCC4)n(Cc3cc(F)c(F)c(F)c3)c2=O)c(=O)[nH]1 [Compound I-0064]	< 100 nM	–	–	1000 to 10000 nM
Cn1cnc(Cn2c(=O)nc(Nc3cc4c(cc3Cl)OCC4)n(Cc3cc(F)c(F)c(F)c3)c2=O)n1 [Compound I-0482]	–	15 nM	385 nM	–
CCn1cc2cc(Nc3nc(=O)n(-c4cncc(C)c4)c(=O)n3Cc3cc(Cl)c(F)cn3)c(Cl)cc2n1 [II-0494]	–	24 nM	878 nM	–
COc1ccc(Nc2nc(=O)n(Cc3ccc[nH]c3=O)c(=O)n2Cc2cc(Cl)c(F)c(Cl)c2)cc1 [Compound I-0227]	< 100 nM	–	–	1000 to 10000 nM
Cc1cncc(-n2c(=O)nc(Nc3cc4oc(C)nc4cc3F)n(Cc3ccc(F)c(C#N)c3)c2=O)c1 [II-0107]	< 100 nM	–	–	1000 to 10000 nM
Cc1cncc(-n2c(=O)nc(N3CC4CCC3CO4)n(Cc3cc(F)c(F)c(F)c3)c2=O)c1 (stereo not drawn) [II-0375]	–	3800 nM	21600 nM	–
Cc1cc(F)c(C#N)cc1Cn1c(Nc2cc3cn(C)nc3cc2F)nc(=O)n(-c2cncc(Cl)c2)c1=O [II-0365]	< 100 nM	–	–	< 1000 nM
Cn1cc2cc(Nc3nc(=O)n(Cc4cc5ccsc5[nH]c4=O)c(=O)n3Cc3ccc(F)c(C#N)c3)c(Cl)cc2n1 [II-0008]	< 100 nM	–	–	1000 to 10000 nM
Cn1cc2cc(Nc3nc(=O)n(-c4cnc5ccccn45)c(=O)n3Cc3cc(F)c(F)c(Cl)c3)c(Cl)cc2n1 [II-0490]	–	83 nM	8700 nM	–
COc1cc(Cn2c(Nc3cc4cn(C)nc4cc3Cl)nc(=O)n(-c3cncc(C)c3)c2=O)ccc1F [II-0593]	< 100 nM	–	–	1000 to 10000 nM
CNc1nc2ccc(Nc3nc(=O)n(Cc4ccc[nH]c4=O)c(=O)n3Cc3cc(F)c(F)c(F)c3)cc2s1 [Compound I-0460]	< 100 nM	–	–	1000 to 10000 nM
Cc1cncc(-n2c(=O)nc(Nc3ccc4nn(C)cc4c3)n(Cc3cc(C#N)c(F)cc3C)c2=O)c1 [II-0290]	–	3.5 nM	210 nM	–
O=c1nc(Nc2cc3cn(CCN4CCOCC4)nc3cc2Cl)n(Cc2cc(F)c(F)c(F)c2)c(=O)n1-c1cncc2ccccc12 [Compound I-0401]	< 100 nM	–	–	1000 to 10000 nM
N#Cc1cc(Cn2c(Nc3cc4c(cc3Cl)OCC4)nc(=O)n(Cc3cc(Cl)c[nH]c3=O)c2=O)ccc1F [Compound I-0408]	< 100 nM	–	–	1000 to 10000 nM

Reference: patent US12559474B2, “Triazine derivatives having virus replication inhibitory activity and pharmaceutical composition comprising the same” (priority 2021, dated 2026)
